In patent US20090298757A1, “OXYNTOMODULIN ANALOGUES AND THEIR EFFECTS ON FEEDING BEHAVIOUR” (Imperial Innovations Limited, priority 2005, published 2009):
“Also recorded” adds a separate entry of the source. Non-standard residues stand in square brackets, D forms with d. No end group written: not given here. *: point of attachment. Lauroyl = CCCCCCCCCCCC(=O)*

Test system: C57BL/6 mice
Assay: Food intake in fasted mice after injection of peptide
Format: in vivo, mouse
Details: for Multiples of food inhibition Factor: Example 9, food intake during the first hour after injection, activity relative to oxm (1400 nmol/kg); for potency relative to oxyntomodulin: as mentioned in the examples section, times that of oxyntomodulin
Method: Animals. All animal procedures were approved by the British Home Office Animals (Scientific Procedures) Act 1986 (Project License number 70/5516). Male C57BL/6 mice and male Wistar rats were maintained in individual cages under controlled temperature (21-23° C.) with ad libitum access to standard chow (RM1 diet, SDS Ltd, Witham, Essex, UK) and to water. The light cycle was 14 hours light and 10 hours dark with ‘dawn’ at 07:00, lights full on at 07:30, ‘dusk’ at 21:00 with lights off at 21:30. These times were fixed in the animal facility.
All animals were handled almost daily for on average nine days prior to the first study. During the acclimatization period, each animal received two saline injections at least two days apart in order to further acclimatize to the procedure on the study days.
Intra-peritoneal (IP) injections. IP injections were administered to mice via a 0.5 ml syringe with a 29-gauge needle (maximum injection volume 0.1 ml). Maximum volume administered IP was 0.1 ml.
Study protocol: C57BL/6 mice (20-35 g) were injected with the peptide under investigation following a 20-hour fast. Wistar rats were injected following a 24-hour fast. A pre-weighed quantity of chow was presented immediately after injection. The remaining food was measured at regular time intervals (e.g. 1, 2, 3, 4, 6, 8, 24 and 48 hours following injection) and food intake calculated.

[1] = Example 57, mice, 6 or 20 nmol/kg, vs saline
[2] = Example 6, mice, 2700 nmol/kg, 0-8 h
[3] = Example 7, mice, 1000 nmol/kg, 0-24 h
[4] = Example 1, fasted mice, 2700 nmol/kg by injection, intervals up to 32 h, vs saline and oxm
[5] = Example 11, mice, 100 nmol/kg, vs oxm(xx15-24)

Ala2-oxm: oxm with Ser at residue 2 substituted by Ala (HAQGTFTSDYSKYLDSRRAQDFVQWLMNTKRNRNNIA; Oxyntomodulin; UniProt P01275 53-89, looked up, variant S2A)
food intake (Example 5, fasted mice, 2700 nmol/kg, 0-4 h, vs saline and oxm): does NOT significantly reduce food intake compared to saline

CH3—CO—NH—CRH—CO-Ser Gln Gly Thr Phe Thr Ser Asp Tyr Ser Lys Tyr Leu Asp Ser Arg Arg Ala Gln Asp Phe Val Gln Trp Leu Met Asn Thr Lys Arg Asn Arg Asn Asn Ile Ala [Acetyloxyntomodulin]
onset of anorectic effect (Example 14, mice, 1400 mmol/kg (so in the source)): later acting than that of oxyntomodulin

D-His Ala Gln Gly Thr Phe Thr Ser Asp Tyr Ser Lys Tyr Leu Asp Ser Arg Arg Ala Gln Asp Phe Val Gln Trp Leu Met Asn Thr Lys Arg Asn Arg Asn Asn Ile Ala (XAQGTFTSDYSKYLDSRRAQDFVQWLMNTKRNRNNIA; D-His at position 1; Oxm Analogue; D-His) [D-His-Ala2-oxm]
Multiples of food inhibition Factor (mice): 2.5
minimum effective dose (Example 43, mice, food intake): approximately 250 nmol/kg
effectiveness on food intake (Example 43, mice, various doses, vs oxm): more effective than oxm

D-His Ala Gln Gly Thr Phe Thr Ser Asp Tyr Ser Lys Tyr Leu Glu Glu Glu Ala Val Arg Leu Phe Ile Glu Trp Leu Lys Asn Gly Gly Pro Ser Ser Asn Asn Ile Ala ([dH]AQGTFTSDYSKYLEEEAVRLFIEWLKNGGPSSNNIA) [D-His1-Ala2-oxm(xx15-24)(xx27-33)]
duration of effect on food intake (Example 8, mice, 100 mmol/kg (so in the source)): especially long-acting
Multiples of food inhibition Factor (mice): 1000-4000
potency relative to oxyntomodulin: 1-4000 times

D-His Ser Asp Gly Thr Phe Thr Ser Asp Tyr Ser Lys Tyr Leu Glu Glu Glu Val Val Arg Leu Phe Ile Gln Trp Leu Lys Asn Gly Gly Pro Ser Lys Asn Asn Ile Ala Ala Ala Glu Glu Lys-Lauroyl ([dH]SDGTFTSDYSKYLEEEVVRLFIQWLKNGGPSKNNIAAAEEK(Lauroyl))
cumulative food intake [1]: markedly decreased cumulative food intake in comparison to the saline control

D-His Ser Gln Gly Thr Phe Thr Ser Asp Tyr Ser Lys Tyr Leu Asp Ser Arg Arg Ala Gln Asp Phe Val Gln Trp Leu Lys Asn Gly Gly Pro Ser Ser Gly Ala Pro Pro Pro Ser ([dH]SQGTFTSDYSKYLDSRRAQDFVQWLKNGGPSSGAPPPS) [D-His-oxm26ex]
cumulative food intake (Example 13, mice, 1000 nmol/kg (FIG. 21d)): reduction in food intake in comparison to oxm26ex

D-Ser Ala Asp Gly Thr Phe Thr Ser Asp Tyr Ser Lys Tyr Leu Glu Glu Glu Ala Val Arg Leu Phe Ile Gln Trp Leu Lys Asn Gly Gly Pro Ser Lys Asn Asn Ile Ala Ala Ala Glu Glu Lys-Lauroyl
cumulative food intake [1]: markedly decreased cumulative food intake in comparison to the saline control

Des-His-oxm: oxm analogue with substitution of the first amino acid (His 1) (SQGTFTSDYSKYLDSRRAQDFVQWLMNTKRNRNNIA; Oxyntomodulin; UniProt P01275 53-89, looked up, variant H1*)
food intake (Example 12, fasted mice, 2700 nmol/kg, 0-4 h): reduced food intake
duration of action on food intake (Example 12, fasted mice, 2700 nmol/kg, vs native oxm): more sustained action than native oxm

HSQGTFTSDYSKYLDSRRAQDFVQWLKNGGPSSGAPPPS [oxm26ex]
food intake [2]: potent and long-lasting effect on food intake
food intake [3]: significantly inhibit feeding both compared to saline control and compared to the oxm-treated group
duration of effect on food intake (Example 7, mice, 1000 nmol/kg, vs exendin): not as long-lasting as those of exendin

HSQGTFTSDYSKYLEEEAAQDFVQWLMNTKRNRNNIA [oxm(xx15-18)]
food intake [4]: increased and prolonged inhibition of food intake compared to both saline and oxm

HSQGTFTSDYSKYLEEEAIRLFIEWLMNTKRNRNNIA [Ile19-oxm(xx15-24)]
potency on food intake (Example 11, mice, 100 nmol/kg, 0-24 h, vs oxm(xx15-24)): equipotent with or slightly more potent than oxm(xx15-24)
onset and duration of activity on food intake [5]: slightly delayed action as compared with oxm (xx15-24)
onset and duration of activity on food intake (Example 11, mice, 100 nmol/kg, vs oxm(xx15-24), listed as SEQ ID NO: 34): delayed onset

HSQGTFTSDYSKYLEEEAVRLFIEWLMNTKRNRNNIA [oxm(xx15-24)]
food intake [4]: greater and more prolonged appetite suppressant effect; also recorded: more potent effect on feeding than oxm
cumulative food intake (Example 2, mice, 300 nmol/kg, first 8 hours post-injection (FIG. 4c)): reduces food intake only slightly less than exendin over the first 8 hours post-injection
Multiples of food inhibition Factor (mice): 400
food intake (Example 27, mice, 100 nmol/kg): most effective
potency relative to oxyntomodulin: 400 times

HSQGTFTSDYSKYLEEEAVRLFVQWLMNTKRNRNNIA [oxm(xx15-21)]
food intake [4]: greater and more prolonged appetite suppressant effect
Multiples of food inhibition Factor (mice): 200
potency relative to oxyntomodulin: 200 times

HSQGTFTSDYSKYLEEEVVRLFIEWLMNTKRNRNNIA [18Val-oxm(xx15-24)]
onset and duration of activity on food intake [5]: delayed onset of activity as compared with oxm(xx15-24) whilst the activity is more prolonged
onset and duration of activity on food intake (Example 11, mice, 100 nmol/kg, vs oxm(xx15-24), listed as SEQ ID NO: 31): delayed onset

HSQGTFTSDYSKYLEEEVVRLFVQWLMNTKRNRNNIA
food intake (Example 16, mice, 30 nmol/kg): reduction in food intake from 0 to 2 hours

His Ser Gln Gly Thr Phe Thr Ser Asp Tyr Ser Lys Tyr Leu Asp Ser Arg Arg Ala Gln Asp Phe Val Gln Trp Leu Arg Asn Gly Gly Pro Ser Ser Asn Asn Ile Ala (HSQGTFTSDYSKYLDSRRAQDFVQWLRNGGPSSNNIA; Arg27-oxm(ex27-33))
food intake (Example 17, mice, 300 nmol/kg): reduction in food intake from 0 to 1 hours
food intake (Example 30, mice, 1400 or 300 nmol/kg, vs oxm(ex27-33)): reduce the effect of oxm(ex27-33) on food intake

His Ser Gln Gly Thr Phe Thr Ser Asp Tyr Ser Lys Tyr Leu Asp Ser Arg Arg Ala Gln Asp Phe Val Gln Trp Leu Lys Asn Gly Gly Pro Asn Ser Asn Asn Ile Ala (HSQGTFTSDYSKYLDSRRAQDFVQWLKNGGPNSNNIA; Asn32-oxm(ex27-33))
food intake (Example 31, mice, 300 nmol/kg, vs oxm(ex27-33)): reduces the effect of oxm(ex27-33) on food intake

His Ser Gln Gly Thr Phe Thr Ser Asp Tyr Ser Lys Tyr Leu Asp Ser Arg Arg Ala Gln Asp Phe Val Gln Trp Leu Lys Asn Gly Gly Pro Ser Ser Asn Asn Ile Ala (HSQGTFTSDYSKYLDSRRAQDFVQWLKNGGPSSNNIA; Oxm Analogue) [oxm(xx27-33)]
food intake (Example 3, mice, 2700 nmol/kg, vs saline and oxm): increased and prolonged inhibition of food intake compared to both saline and oxm
Multiples of food inhibition Factor (mice): 7

His Ser Gln Gly Thr Phe Thr Ser Asp Tyr Ser Lys Tyr Leu Glu Glu Glu Ala Val Arg Leu Phe Ile Glu Trp Leu Lys Asn Gly Gly Pro Ser Ser Gly Ala Pro Pro Pro Ser [oxm(xx15-39)]
food intake [2]: potent and long-lasting effect on food intake
food intake [3]: significantly inhibit feeding both compared to saline control and compared to the oxm-treated group
